Source: patent publication US20120135055A1, “Dry Powder Inhaler Formulations” (BREATH LIMITED, priority 2009, published 2012)

What was measured:
[1] = Dry Sympatec PSD analysis (particle size distribution); format: physicochemical; conditions: pre-storage
[2] = Effect of humidity on prolonged storage (20% RH, 48 hours; DVS, DSC, TGA, PSD, SEM); format: physicochemical; conditions: 20% RH for 48 hours; for DSC trace, thermal behaviour of stored sample: post-humidity treatment
Method: In order to evaluate the effect of humidity on prolonged storage processed BDP hydrate was subjected to 20% relative humidity (RH) for 48 hours. The sample recovered after storage was analysed by DSC, TGA, PSD and SEM. In order to evaluate the effect of humidity on prolonged storage, processed BDP heptane was subjected to 20% relative humidity (RH) for 48 hours. The sample recovered after storage was analysed by DSC, TGA, PSD and SEM.

SMILES	Particle size distribution relative to the inhalation range [1]	DVS mass plot, change of mass during storage [2]	Stability on prolonged storage compared with anhydrous BDP [2]	DSC trace, thermal behaviour of stored sample [2]	Particle Size, cumulative distribution Q3 X50 ([2]; post-storage sample) [μ]	Particle Size, cumulative distribution Q3 X90 ([2]; post-storage sample) [μ]	Particle Size, cumulative distribution Q3 X10 ([2]; post-storage sample) [μ]
CCC(=O)OCC(=O)[C@@]1(OC(=O)CC)[C@@H](C)C[C@H]2[C@@H]3CCC4=CC(=O)C=C[C@]4(C)[C@@]3(Cl)[C@@H](O)C[C@@]21C.O [BDP hydrate, beclomethasone diproprionate]	well within the inhalation range	considerable weight loss due to partial dehydration	higher stability on prolonged storage than anhydrous BDP	no variation in the thermal behaviour	1.37	2.95	
CCC(=O)OCC(=O)[C@@]1(OC(=O)CC)[C@@H](C)C[C@H]2[C@@H]3CCC4=CC(=O)C=C[C@]4(C)[C@@]3(Cl)[C@@H](O)C[C@@]21C.O [BDP heptane, beclomethasone diproprionate]	extremely promising and within the inhalation range			no variation in the thermal behaviour	2.44	5.29	0.68
